Measured values published in patent US20050009005A1, “Methods of using quantitative lipid metabolome data” (Lipomics Technologies, Inc., priority 2001, published 2005).

Tested on: de novo fatty acid synthesis
Assay: Lipid metabolite profile of plasma, heart, liver and inguinal adipose of CL316,243-treated mice (trial 2; Tables 7 and 8)
Format: in vivo
Details: mean
Text: It is understood that the described methods can be used to analyze lipid metabolites from other subjects, including particularly animals other than mice.
Mouse tissue and plasma samples were a generous donation to Lipomics Technologies, Inc., from Dr. Edward Leiter of the Jackson Laboratory (Bar Harbor, Me.). Samples included the plasma, heart, liver and inguinal adipose of mice treated with pharmaceuticals or their corresponding controls.
In trial 2, male, inbred NON mice were fed a control with or without the presence of the β-3 adrenergic agonist CL316,243 for four weeks (at 0.001% CL316,243 by weight in the dietary chow).
In both studies, five treated and five control mice were used. Following the treatments and the killing of the mice, tissues and plasma were taken, chilled to −80 ° C. and shipped to the analysis laboratory at Lipomics Technologies in a frozen state.
Tissue processing and lipid extraction, including provision of internal standards, was carried out essentially as described in Watkins et al. (J. Lipid Res. Papers in Press, 10.1184/jlf.M200169-JLF200, published August 16, 2002), and in co-owned international application PCT/US02/21426, entitled “GENERATING, VIEWING, INTERPRETING, AND UTILIZING A QUANTITATIVE DATABASE OF METABOLITES,” both of which are incorporated in their entirety herein by reference.
The separation of lipid classes was performed in some instance by preparative thin-layer chromatography (TLC). To remove any residual metal or other damaging contaminants on the TLC plates, each plate was washed prior to use. Washing the plates is a three-step process that involves impregnating each plate with ethylenediamine tetraacetic acid (EDTA) and rinsing the plates once with methanol and once with chloroform. Each plate is first impregnated with 1 mM EDTA, pH 5.5, by ascending development using the method of Ruiz (J. Lipid Res. 38, 1482-1489, 1997). After each plate was completely developed, it was dried in air overnight. Once dry, each plate was developed in methanol, dried, and developed in chloroform in the same direction as the development with EDTA. The washed plates were then dried in air. Just prior to use, each plate was activated by heating to 110° C. for 10 minutes.
To prepare the TLC chamber for chromatography, Whatman (Clifton, N.J.) filter paper was cut into 20×80-cm strips and wrapped around the inside wall of a 30×60×10-cm glass development chamber. One hundred milliliters of the appropriate mobile phase was added to the chamber, and the chambers were sealed and allowed to equilibrate. Chambers were considered equilibrated when the solvent front had completely ascended the filter paper. The mobile phase employed for the separation of phospholipid classes (lyso-phospholipids, sphingomyelin, phosphatidylcholine, phosphatidylserine, phosphatidylethanolamine and cardiolipin) was a modification of the solvent system described by Holub and Skeaf (“Nutritional regulation of cellular phosphatidylinositol,” in Methods in Enzymology, ed. Conn, P. M. (Academic Press, Inc., Orlando), pp. 234-243, 1987) consisting of chloroform/methanol/acetic acid/water (100:67:7:4, by volume).
For the separation of neutral lipid classes (free fatty acids, free sterols, triacylglycerides and cholesterol esters), a solvent system consisting of petroleum ether/diethyl ether/acetic acid (80:20:1, by volume) was used (Mangold, Thin Layer Chromatography—A Laboratory Handbook (Springer-Verlag, New York), 1969).
After the TLC plate was activated, the sample extracts were spotted onto the activated plate. As a general rule, samples were spotted at an estimated concentration such that no single lipid class was present at more than 25 jig per centimeter of plate width following chromatography. This ensured that the plate was not overloaded and minimized the risk of cross-contamination between lipid classes (cross-contamination is readily identified during sample analysis as each lipid class contains unique internal standards). […]

C[C@H](Cc1ccc2c(c1)OC(C(=O)[O-])(C(=O)[O-])O2)NC[C@H](O)c1cccc(Cl)c1.[Na+].[Na+] [CL316,243]
16:0 (Heart, PS/I): 302.1 nanomoles per gram | 16:1n7 (Heart, PS/I): 48.6 nanomoles per gram | 18:0 (Heart, PS/I): 2823.7 nanomoles per gram | 18:1n7 (Heart, PS/I): 73.5 nanomoles per gram | 18:1n9 (Heart, PS/I): 572.9 nanomoles per gram | 14:0 (Heart, TAG): 78.8 nanomoles per gram | 16:0 (Heart, TAG): 651.6 nanomoles per gram | 16:1n7 (Heart, TAG): 57.3 nanomoles per gram | 18:0 (Heart, TAG): 195.5 nanomoles per gram | 18:1n7 (Heart, TAG): 28.0 nanomoles per gram | 18:1n9 (Heart, TAG): 402.8 nanomoles per gram | 14:0 (Heart, lipid class CE): 5.1 percentage of total fatty acids | 16:0 (Heart, lipid class CE): 15.4 percentage of total fatty acids | 16:1n7 (Heart, lipid class CE): 2.9 percentage of total fatty acids | 18:0 (Heart, lipid class CE): 7.0 percentage of total fatty acids | 18:1n7 (Heart, lipid class CE): 1.5 percentage of total fatty acids | 18:1n9 (Heart, lipid class CE): 30.1 percentage of total fatty acids | Saturates (Heart, lipid class CE): 30.3 percentage of total fatty acids | Total (Heart, lipid class CE): 100.0 percentage of total fatty acids | Total n7 (Heart, lipid class CE): 4.4 percentage of total fatty acids | Total n9 (Heart, lipid class CE): 31.5 percentage of total fatty acids | 14:0 (Heart, lipid class CL): 0.6 percentage of total fatty acids | 16:0 (Heart, lipid class CL): 2.0 percentage of total fatty acids | 16:1n7 (Heart, lipid class CL): 1.7 percentage of total fatty acids | 18:0 (Heart, lipid class CL): 3.3 percentage of total fatty acids | 18:1n7 (Heart, lipid class CL): 3.2 percentage of total fatty acids | 18:1n9 (Heart, lipid class CL): 8.0 percentage of total fatty acids | Saturates (Heart, lipid class CL): 6.5 percentage of total fatty acids | Total (Heart, lipid class CL): 25.0 percentage of total fatty acids | Total n7 (Heart, lipid class CL): 4.9 percentage of total fatty acids | Total n9 (Heart, lipid class CL): 8.5 percentage of total fatty acids | 14:0 (Heart, lipid class FFA): 2.9 percentage of total fatty acids | 16:0 (Heart, lipid class FFA): 17.8 percentage of total fatty acids | 16:1n7 (Heart, lipid class FFA): 2.3 percentage of total fatty acids | 18:0 (Heart, lipid class FFA): 7.4 percentage of total fatty acids | 18:1n7 (Heart, lipid class FFA): 2.2 percentage of total fatty acids | 18:1n9 (Heart, lipid class FFA): 29.9 percentage of total fatty acids | Saturates (Heart, lipid class FFA): 29.2 percentage of total fatty acids | Total (Heart, lipid class FFA): 100.0 percentage of total fatty acids | Total n7 (Heart, lipid class FFA): 4.5 percentage of total fatty acids | Total n9 (Heart, lipid class FFA): 30.8 percentage of total fatty acids | 14:0 (Heart, lipid class PC): 0.3 percentage of total fatty acids | 16:0 (Heart, lipid class PC): 26.9 percentage of total fatty acids | 16:1n7 (Heart, lipid class PC): 0.4 percentage of total fatty acids | 18:0 (Heart, lipid class PC): 17.4 percentage of total fatty acids | 18:1n7 (Heart, lipid class PC): 1.9 percentage of total fatty acids | 18:1n9 (Heart, lipid class PC): 6.6 percentage of total fatty acids | Saturates (Heart, lipid class PC): 45.0 percentage of total fatty acids | Total (Heart, lipid class PC): 50.0 percentage of total fatty acids | Total n7 (Heart, lipid class PC): 2.2 percentage of total fatty acids | Total n9 (Heart, lipid class PC): 6.8 percentage of total fatty acids | 14:0 (Heart, lipid class PE): 0.1 percentage of total fatty acids | 16:0 (Heart, lipid class PE): 9.3 percentage of total fatty acids | 16:1n7 (Heart, lipid class PE): 0.3 percentage of total fatty acids | 18:0 (Heart, lipid class PE): 26.7 percentage of total fatty acids | 18:1n7 (Heart, lipid class PE): 1.3 percentage of total fatty acids | 18:1n9 (Heart, lipid class PE): 4.8 percentage of total fatty acids | Saturates (Heart, lipid class PE): 36.5 percentage of total fatty acids | Total (Heart, lipid class PE): 50.0 percentage of total fatty acids | Total n7 (Heart, lipid class PE): 1.6 percentage of total fatty acids | Total n9 (Heart, lipid class PE): 5.0 percentage of total fatty acids | 14:0 (Heart, lipid class PL): 0.3 percentage of total fatty acids | 16:0 (Heart, lipid class PL): 16.0 percentage of total fatty acids | 16:1n7 (Heart, lipid class PL): 0.5 percentage of total fatty acids | 18:0 (Heart, lipid class PL): 19.8 percentage of total fatty acids | 18:1n7 (Heart, lipid class PL): 1.8 percentage of total fatty acids | 18:1n9 (Heart, lipid class PL): 6.1 percentage of total fatty acids | Saturates (Heart, lipid class PL): 37.0 percentage of total fatty acids | Total (Heart, lipid class PL): 50.0 percentage of total fatty acids | Total n7 (Heart, lipid class PL): 2.3 percentage of total fatty acids | Total n9 (Heart, lipid class PL): 6.5 percentage of total fatty acids | 14:0 (Heart, lipid class PS/I): 0.4 percentage of total fatty acids | 16:0 (Heart, lipid class PS/I): 3.5 percentage of total fatty acids | 16:1n7 (Heart, lipid class PS/I): 0.6 percentage of total fatty acids | 18:0 (Heart, lipid class PS/I): 33.1 percentage of total fatty acids | 18:1n7 (Heart, lipid class PS/I): 0.9 percentage of total fatty acids | 18:1n9 (Heart, lipid class PS/I): 6.7 percentage of total fatty acids | Saturates (Heart, lipid class PS/I): 38.0 percentage of total fatty acids | Total (Heart, lipid class PS/I): 50.0 percentage of total fatty acids | Total n7 (Heart, lipid class PS/I): 1.4 percentage of total fatty acids | Total n9 (Heart, lipid class PS/I): 7.1 percentage of total fatty acids | 14:0 (Heart, lipid class TAG): 4.1 percentage of total fatty acids | 16:0 (Heart, lipid class TAG): 34.2 percentage of total fatty acids | 16:1n7 (Heart, lipid class TAG): 2.9 percentage of total fatty acids | 18:0 (Heart, lipid class TAG): 10.1 percentage of total fatty acids | 18:1n7 (Heart, lipid class TAG): 1.5 percentage of total fatty acids | 18:1n9 (Heart, lipid class TAG): 21.5 percentage of total fatty acids | Saturates (Heart, lipid class TAG): 51.9 percentage of total fatty acids | Total (Heart, lipid class TAG): 33.3 percentage of total fatty acids | Total n7 (Heart, lipid class TAG): 4.4 percentage of total fatty acids | Total n9 (Heart, lipid class TAG): 22.9 percentage of total fatty acids | 14:0 (Liver, CE): 45.5 nanomoles per gram | 16:0 (Liver, CE): 462.8 nanomoles per gram | 16:1n7 (Liver, CE): 84.4 nanomoles per gram | 18:0 (Liver, CE): 121.3 nanomoles per gram | 18:1n7 (Liver, CE): 31.5 nanomoles per gram | 18:1n9 (Liver, CE): 455.4 nanomoles per gram | Saturates (Liver, CE): 668.6 nanomoles per gram | Total n7 (Liver, CE): 115.9 nanomoles per gram | Total n9 (Liver, CE): 482.4 nanomoles per gram | Total nMole of FA (Liver, CE): 1764.6 nanomoles per gram | 14:0 (Liver, CL): 21.3 nanomoles per gram | 16:0 (Liver, CL): 254.3 nanomoles per gram | 16:1n7 (Liver, CL): 85.8 nanomoles per gram | 18:0 (Liver, CL): 260.0 nanomoles per gram | 18:1n7 (Liver, CL): 215.4 nanomoles per gram | 18:1n9 (Liver, CL): 437.0 nanomoles per gram | Saturates (Liver, CL): 556.4 nanomoles per gram | Total n7 (Liver, CL): 301.2 nanomoles per gram | Total n9 (Liver, CL): 473.0 nanomoles per gram | Total nMole of FA (Liver, CL): 1255.5 nanomoles per gram | 14:0 (Liver, FFA): 152.9 nanomoles per gram | 16:0 (Liver, FFA): 2280.7 nanomoles per gram | 16:1n7 (Liver, FFA): 375.0 nanomoles per gram | 18:0 (Liver, FFA): 460.2 nanomoles per gram | 18:1n7 (Liver, FFA): 273.5 nanomoles per gram | 18:1n9 (Liver, FFA): 2293.4 nanomoles per gram | Saturates (Liver, FFA): 2951.3 nanomoles per gram | Total n7 (Liver, FFA): 648.5 nanomoles per gram | Total n9 (Liver, FFA): 2337.2 nanomoles per gram
